Measurements as given in patent publication USRE46718E1, “Compositions comprising Lactobacillus plantarum strains in combination with tannin and new Lactobacillus plantarum strains” (Probi AB, priority 2003, dated 2018).

Legend:
[1] = tested on: ischemia/reperfusion injury; experiment: Lipid peroxidation after ischemia/reperfusion injury in mice (LPO-586 colorimetric assay); type: in vivo, Balb/C mice
From the text: Fifteen Balb/C mice were divided into five groups (3 mice per group) and fed different combinations of normal food, rose hip powder (rich in tannins) and the tannase positive strain Lactobacillus plantarum 299v. The constituents were mixed with some water to get a mushy consistency. Groups 1 and 2 were given normal mouse food, Group 3 got the normal food supplemented with rose hip powder (1.6 g per day), Group 4 got normal food supplemented with L. plantarum 299v (10^10 bacteria per dose) and Group 5 got normal food supplemented with both the rose hip powder and L. plantarum 299v. The mice were fed once a day for 6-8 days before inducing an ischemia/reperfusion injury. The injury was done according to the following dissection protocol: Mice were given 0.15 ml of Ketamine/Xylazine solution (7.85 mg/ml and 2.57 mg/ml, respectively) subcutaneously for anesthesia. […] 1.0 ml PBS was injected into the peritoneal cavity for fluid resuscitation. […]
Lipid peroxidation is a well-established mechanism of cellular injury and is used as an indicator of oxidative stress in cells and tissues. […] LPO-586™ is a colorimetric assay designed to quantify MDA and is based on the reaction of a chromogenic reagent, N-methyl-2-phenylindole with MDA at 45° C. One molecule of MDA reacts with two molecules of N-methyl-2-phenylindole to yield a stable chromophore with maximal absorbance at 586 nm.

[2] = Screening for tannase activity (breakdown of methylgallate, Osawa and Walsh); type: biochemical; design: key to Tannase activity (positive or negative): +: Positive tannase activity is shown as a green to brown coloration of free gallic acid in the cell-suspension after prolonged exposure to oxygen in an alkaline condition; settings: for Tannase activity (positive or negative): 24 h incubation with methylgallate at 37° C., visual colour; for Quantitative tannase activity (A440/A620): ratio of A440 after 24 h incubation with methylgallate and A620 of cell-suspension at start; for Tannase activity, in words: where comparative, versus Lactobacillus plantarum 299v
Protocol: The applied method to detect tannase activity has earlier been described by Osawa and Walsh (1993). The detecting principle is that the breakdown of the tannin, methylgallate, is measured by the following procedure:
The test bacterium is cultured anaerobically on MRSagar (Merck, Darmstadt, Germany) for 2 d at 37° C. and then the cells are harvested and suspended in 5 ml 0.9% (w/v) NaCl. The cell-suspension is centrifuged and the cells re-suspended in 10 ml 0.9% NaCl and the absorbance is measured at 620 nm (0.9% NaCl solution as standard). The cell-suspension is diluted until the absorbance is between 0.1 and 0.6 (spectrophotometer, Pharmacia LKB, Novaspec II). After centrifugation, the cells are re-suspended in 1 ml methylgallate-buffer (3.7 g/l methylgallate [Aldrich Chemical Company, Inc., Milwaukee, Wis., USA], 4.5 g/l NaH2PO4, pH=5.0 [sterile filtered]) and the tube is incubated at 37° C. for 24 h. One ml of NaHCO3-buffer (42 g NaHCO3 per litre, pH=8.6) is added and the solution is incubated for 1 h at room temperature, before measurement of the absorbance at 440 nm (NaHCO3-buffer as standard). The colour of the suspension is measured by visual determination.
The colour should be brown or green to be graded as positive tannase activity. A quantitative value of the tannase activity was obtained by the ratio between the absorbance of the cell-suspension (A620; amount of cells) at the start of the incubation with methylgallate versus the absorbance after the 24 h incubation with methylgallate (A440; coloration of free gallic acids after exposure to oxygen in an alkaline condition).

[3] = tested on: human colonic carcinoma cell-line HT-29; experiment: Adhesion to HT-29 cells; type: cell-based; settings: for Adhesion to HT-29 cells, in salt solution: HBSS, 30 minutes, mean of at least 40 cells; for Capacity to adhere to human colonic mucosa cells, in words: compared with Lactobacillus plantarum 299v
Protocol: In total 32 L. plantarum strains isolated from human mucosa were tested as to adherence to intestinal epithelial cells of human colonic carcinoma cell-line HT-29 with a mannose-specific binding (method as described by Wold, A, et al, Infection and Immunity, October 1988, p. 2531-2537). Cells of the human adenocarcinoma cell line HT-29 were cultured in Eagle's medium supplemented with 10% fetal calf serum, 2 mM L-glutamine and 50 ig/ml of gentamicin (Sigma Chemical Co., Saint Louis, Mo., USA). A few days after the cells had reached confluence they were detached with EDTA-containing buffer (0.54 mM), washed and suspended in Hank's balanced salt solution (HBSS) at 5×10^6/ml. The bacteria were harvested, washed and suspended in HBSS at 5×10^9/ml (2× an optical density of 1.5 at 597 nm). Cells, bacteria and HBSS were mixed in the ratio 1:1:3 and incubated with end-over-end rotation for 30 minutes at 4EC. The cells were washed once with ice cold PBS and fixed with neutral buffered formalin (Histofix, Histolab, Götebrog, Sweden). The number of bacteria attached to each of at least 40 cells was determined using interference contrast microscopy (500× magnification, Nicon Optophot, with interference contrast equipment, Bergström Instruments, Göteborg, Sweden) and the mean number of bacteria per cell was calculated.

[4] = tested on: Bacterial flora in caecum; experiment: Bacterial flora in caecum after ischemia/reperfusion injury in mice (viable count); type: in vivo, Balb/C mice; settings: caecum stool after ischemia/reperfusion
From the text: Fifteen Balb/C mice were divided into five groups (3 mice per group) and fed different combinations of normal food, rose hip powder (rich in tannins) and the tannase positive strain Lactobacillus plantarum 299v. The constituents were mixed with some water to get a mushy consistency. Groups 1 and 2 were given normal mouse food, Group 3 got the normal food supplemented with rose hip powder (1.6 g per day), Group 4 got normal food supplemented with L. plantarum 299v (10^10 bacteria per dose) and Group 5 got normal food supplemented with both the rose hip powder and L. plantarum 299v. The mice were fed once a day for 6-8 days before inducing an ischemia/reperfusion injury. The injury was done according to the following dissection protocol: Mice were given 0.15 ml of Ketamine/Xylazine solution (7.85 mg/ml and 2.57 mg/ml, respectively) subcutaneously for anesthesia. […] 1.0 ml PBS was injected into the peritoneal cavity for fluid resuscitation. […] The abdomen was then closed using a running vicryl 3-0 suture. The animal was allowed to awake from anesthesia and was removed from the warming pad and placed back into the cage. After 4 h and 15 min, the animal was given anesthesia again and tissue and stool samples were obtained in the following order and placed in preweighed tubes: liver tissue, ilium mesentery tissue and cecum stool for bacteriological sampling, and cecum and ilium tissue for colorimetric assay for lipid peroxidaton, and cecum and ilium tissue for histological examination. The samples for bacteriological evaluation were weighed and placed in freezing media and frozen immediately at −70° C. Samples for colorimetric assay (LPO586) were rinsed in PBS, weighed, homogenized, aliquoted and then frozen immediately at −70° C.
Bacteriological evaluation was performed by viable count by anaerobic incubation (BBL Gas Pak Plus, Becton Dickinson and Company, Sparks, Md., USA) on Rogosa-agar (Merck, Darmstadt, Germany) at 37° C. for 3 d, VRBD-agar (Merck, Darmstadt, Germany) at 37° C. for 24 h and Brain heart infusion agar (BHI; Oxoid, Basingstoke, Hampshire, England) at 37° C. for 3 d. Viable count on BHI was also done aerobically.

Substance | MDA (lipid peroxidation), in words ([1]; compared to the positive control (Group 2)) | Malondialdehyde (MDA) per g colonic tissue [median-value] ([1]; mice fed once a day for 6-8 days before 30 min ischemia, sampled 4 h 15 min after reperfusion, Control B 6.3, uninjured 4.3) | Tannase activity (positive or negative) [2] | Quantitative tannase activity (A440/A620) [2] | Adhesion to HT-29 cells, in salt solution [3] | Adhesion to HT-29 cells, in presence of methyl-mannoside [3] | Median of viable count, Total aerobes ([4]; BHI agar aerobic) | Median of viable count, Total anaerobes ([4]; BHI agar anaerobic) | Median of viable count, Lactobacilli ([4]; Rogosa-agar) | Median of viable count, Enterobacteriaceae ([4]; VRBD-agar) | Tannase activity, in words [2] | Capacity to adhere to human colonic mucosa cells, in words [3]
Lactobacillus plantarum 299v, DSM 9843 [Strain 299v] | decreased the MDA | 5.8 | + | 6.2 | 11.7 number of bacteria per cell | 3.4 number of bacteria per cell | 4 × 10^9 CFU per a caecal content | 3 × 10^9 CFU per a caecal content | 2 × 10^9 CFU per a caecal content | 3 × 10^3 CFU per a caecal content | – | –
Lactobacillus plantarum HEAL 9, DSM 15312 | – | – | + | 6.4 | 20 number of bacteria per cell | 2.1 number of bacteria per cell | – | – | – | – | higher tannase activity | higher capacity to adhere
Lactobacillus plantarum HEAL 19, DSM 15313 | – | – | + | 7.4 | 23 number of bacteria per cell | 5.0 number of bacteria per cell | – | – | – | – | higher tannase activity | higher capacity to adhere
Lactobacillus plantarum HEAL 99, DSM 15316 | – | – | + | 6.8 | 20 number of bacteria per cell | 2.0 number of bacteria per cell | – | – | – | – | higher tannase activity | higher capacity to adhere
